From PubChem BioAssay AID212 (DTP/NCI, 2004)
Values joined by “and” are separate entries in the source; they are usually repeats but may differ in a detail not shown here. Identical values can stand only once. Results filed as inconclusive are left out.

Test system: BDF1 mice, colon carcinoma 38 sc, T/C %
Experiment: NCI In Vivo Anticancer Drug Screen. Data for tumor model Colon Carcinoma 38 (subcutaneous) in B6D2F1 (BDF1) mice
Settings: endpoint: median tumor weight (est.), higher = larger tumour
How it was run: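 Mice with transplanted tumors are treated with compound or vehicle. Survival or tumor size is then measured in both groups. The ratio of treated to control gives the reported figure.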

[1] = dose: 25.0 mg/kg/injection, schedule: Q07DX002 (ip), vehicle: Klucel (hydroxypropylcellulose) (HPC)
[2] = dose: 50.0 mg/kg/injection, schedule: Q07DX002 (ip), vehicle: Klucel (hydroxypropylcellulose) (HPC)
[3] = dose: 200.0 mg/kg/injection, schedule: Q07DX002 (ip), vehicle: Klucel (hydroxypropylcellulose) (HPC)
[4] = dose: 400.0 mg/kg/injection, schedule: Q07DX002 (ip), vehicle: Klucel (hydroxypropylcellulose) (HPC)
[5] = dose: 25.0 mg/kg/injection, schedule: Q07DX002 (ip), vehicle: saline
[6] = dose: 50.0 mg/kg/injection, schedule: Q07DX002 (ip), vehicle: saline
[7] = dose: 100.0 mg/kg/injection, schedule: Q07DX002 (ip), vehicle: saline
[8] = dose: 200.0 mg/kg/injection, schedule: Q07DX002 (ip), vehicle: saline
[9] = dose: 50.0 mg/kg/injection, schedule: Q07DX002 (ip), vehicle: saline with Tween-80
[10] = dose: 100.0 mg/kg/injection, schedule: Q07DX002 (ip), vehicle: saline with Tween-80
[11] = dose: 1.0 mg/kg/injection, schedule: Q07DX002 (ip), vehicle: water

For `Cc1ccc(C2NC(=S)N3C(c4ccc(C)cc4)NC(=S)N23)cc1` (configuration not stated), the T/C [1] was 94 % of control, the T/C [2] was 79 % of control and the T/C (dose: 100.0 mg/kg/injection, schedule: Q07DX002 (ip), vehicle: Klucel (hydroxypropylcellulose) (HPC)) was 83 % of control. For the same compound, the T/C [3] was 88 % of control, the T/C [4] was 89 % of control and the T/C (dose: 800.0 mg/kg/injection, schedule: Q07DX002 (ip), vehicle: Klucel (hydroxypropylcellulose) (HPC)) was 60 % of control.
For `O=C(O)C(CSC(c1ccccc1)(c1ccccc1)c1ccccc1)N=Cc1cccs1` (configuration not stated), the T/C [5] was 62 % of control, the T/C (dose: 25.0 mg/kg/injection, schedule: Q07DX002 (ip), vehicle: suspension in saline) was 103 % of control and the T/C [6] was 101 % of control. For the same compound, the T/C (dose: 50.0 mg/kg/injection, schedule: Q07DX002 (ip), vehicle: suspension in saline) was 84 % of control, the T/C [7] was 87 % of control and the T/C (dose: 100.0 mg/kg/injection, schedule: Q07DX002 (ip), vehicle: suspension in saline) was 107 % of control. For the same compound, the T/C [8] was 51 % of control and the T/C (dose: 200.0 mg/kg/injection, schedule: Q07DX002 (ip), vehicle: suspension in saline) was 62 % of control.
With `COc1cc([C@@H]2c3cc4c(cc3[C@@H](OC3OC5CO[C@@H](c6cccs6)OC5C(O)C3O)[C@H]3COC(=O)[C@H]23)OCO4)cc(OC)c1O` (some centres not stated) the T/C (dose: 1.0 mg/kg/injection, schedule: Q07DX002 (ip), vehicle: suspension in saline) was 88 % of control, the T/C (dose: 2.0 mg/kg/injection, schedule: Q07DX002 (ip), vehicle: suspension in saline) was 113 % of control and 100 % of control and the T/C (dose: 4.0 mg/kg/injection, schedule: Q07DX002 (ip), vehicle: suspension in saline) was 63 % of control and 75 % of control.
In the case of `Nc1nc2c(ncn2C2OC(CO)C(O)C2N)c(=O)[nH]1` (configuration not stated), the T/C [9] is reported as 73 % of control and the T/C [10] is reported as 74 % of control.
`CC1CN1P1(N2CC2C)=NP(N2CC2C)(N2CC2C)=NP(N2CC2C)(N2CC2C)=N1` (configuration not stated) was tested, and the T/C (dose: 6.25 mg/kg/injection, schedule: Q07DX002 (ip), vehicle: saline) was 103 % of control, the T/C (dose: 12.5 mg/kg/injection, schedule: Q07DX002 (ip), vehicle: saline) was 104 % of control and the T/C [5] was 111 % of control. For the same compound, the T/C [6] was 155 % of control and the T/C [7] was 70 % of control and 94 % of control.
With `CCCCCC[C@@H](O)C/C=C\CCCCCCCC(=O)OCCO` the T/C [6] was 113 % of control, the T/C [7] was 72 % of control and the T/C [8] was 113 % of control. The T/C (dose: 400.0 mg/kg/injection, schedule: Q07DX002 (ip), vehicle: saline) was 117 % of control, the T/C (dose: 800.0 mg/kg/injection, schedule: Q07DX002 (ip), vehicle: saline) was 74 % of control and the T/C (dose: 1600.0 mg/kg/injection, schedule: Q07DX002 (ip), vehicle: saline) was 85 % of control.
`C[n+]1c(-c2cccc(OCCOCCOc3cccc(-c4c5cc(N)ccc5c5ccc(N)cc5[n+]4C)c3)c2)c2cc(N)ccc2c2ccc(N)cc21` was tested, and the T/C [11] was 53 % of control, the T/C (dose: 4.0 mg/kg/injection, schedule: Q07DX002 (ip), vehicle: water) was 44 % of control and 45 % of control and the T/C (dose: 32.0 mg/kg/injection, schedule: Q07DX002 (ip), vehicle: water) was 81 % of control.
In the case of `COc1cccc2c1C(=O)c1c(O)c3c(c(O)c1C2=O)C[C@@](O)(C(C)=O)C[C@@H]3OC1CC(N)C(O)C(C)O1` (some centres not stated), the T/C (dose: 0.5 mg/kg/injection, schedule: Q07DX002 (ip), vehicle: water) is reported as 75 % of control, the T/C (dose: 0.5 mg/kg/injection, schedule: Q07DX003 (ip), vehicle: saline) is reported as 62 % of control and 76 % of control and the T/C [11] is reported as 230 % of control. For the same compound, the T/C (dose: 1.0 mg/kg/injection, schedule: Q07DX003 (ip), vehicle: saline) was 55 % of control and 76 % of control, the T/C (dose: 2.0 mg/kg/injection, schedule: Q07DX002 (ip), vehicle: water) was 117 % of control and the T/C (dose: 2.0 mg/kg/injection, schedule: Q07DX003 (ip), vehicle: saline) was 78 % of control and 91 % of control.
With `CCCCNCCCNCCCNC(=O)c1csc(-c2csc(CCNC(=O)C(NC(=O)C(C)C(O)C(C)NC(=O)C(NC(=O)c3nc(C(CC(N)=O)NCC(N)C(N)=O)nc(N)c3C)C(OC3OC(CO)C(O)C(O)C3OC3OC(CO)C(O)C(OC(N)=O)C3O)c3cnc[nH]3)C(C)O)n2)n1` (configuration not stated) the T/C (dose: 3.75 mg/kg/injection, schedule: Q07DX002 (ip), vehicle: water) was 81 % of control, the T/C (dose: 7.5 mg/kg/injection, schedule: Q07DX002 (ip), vehicle: water) was 61 % of control and the T/C (dose: 15.0 mg/kg/injection, schedule: Q07DX002 (ip), vehicle: water) was 56 % of control. For the same compound, the T/C (dose: 30.0 mg/kg/injection, schedule: Q07DX002 (ip), vehicle: water) was 48 % of control.
`CSc1ncc2ncn(C3OC(CO)C(O)C3O)c2n1` (configuration not stated) was tested, and the T/C [1] was 194 % of control and the T/C [4] was 56 % of control.
`COc1cc(C(=O)c2cc3c(cc2C)OCO3)cc(OC)c1OC` was tested, and the T/C (dose: 12.5 mg/kg/injection, schedule: Q07DX002 (ip), vehicle: Klucel (hydroxypropylcellulose) (HPC)) was 77 % of control, the T/C [1] was 75 % of control and 84 % of control and the T/C [2] was 112 % of control and 95 % of control. The T/C [3] was 79 % of control and 102 % of control.
For `CCCCNC(C)C1(O)Cc2c(O)c3c(c(O)c2C(OC2CC(N)C(O)C(C)O2)C1)C(=O)c1c(OC)cccc1C3=O` (configuration not stated), the T/C (dose: 40.0 mg/kg/injection, schedule: Q07DX002 (ip), vehicle: saline) was 95 % of control, the T/C (dose: 80.0 mg/kg/injection, schedule: Q07DX002 (ip), vehicle: saline) was 101 % of control and the T/C (dose: 160.0 mg/kg/injection, schedule: Q07DX002 (ip), vehicle: saline) was 116 % of control. The T/C (dose: 320.0 mg/kg/injection, schedule: Q07DX002 (ip), vehicle: saline) was 47 % of control.
With `C=C1C(C)C2C(Cc3ccccc3)NC(=O)C23C(OC(C)=O)C=CC(C)(O)C(=O)C(C)C/C=C/C3C1O` (configuration not stated) the T/C (dose: 0.31 mg/kg/injection, schedule: Q07DX003 (ip), vehicle: Klucel (hydroxypropylcellulose) (HPC)) was 93 % of control, the T/C (dose: 0.62 mg/kg/injection, schedule: Q07DX003 (ip), vehicle: Klucel (hydroxypropylcellulose) (HPC)) was 53 % of control and the T/C (dose: 1.25 mg/kg/injection, schedule: Q07DX003 (ip), vehicle: Klucel (hydroxypropylcellulose) (HPC)) was 72 % of control. For the same compound, the T/C (dose: 2.5 mg/kg/injection, schedule: Q07DX003 (ip), vehicle: Klucel (hydroxypropylcellulose) (HPC)) was 100 % of control, the T/C (dose: 5.0 mg/kg/injection, schedule: Q07DX003 (ip), vehicle: Klucel (hydroxypropylcellulose) (HPC)) was 84 % of control and the T/C (dose: 10.0 mg/kg/injection, schedule: Q07DX003 (ip), vehicle: Klucel (hydroxypropylcellulose) (HPC)) was 105 % of control.
In the case of `C[n+]1c(/C=N/NC(N)=S)ccc2ccccc21`, the T/C (dose: 12.5 mg/kg/injection, schedule: Q07DX002 (ip), vehicle: saline with Tween-80) is reported as 115 % of control, the T/C (dose: 25.0 mg/kg/injection, schedule: Q07DX002 (ip), vehicle: saline with Tween-80) is reported as 83 % of control and the T/C [9] is reported as 77 % of control. The T/C [10] was 87 % of control, the T/C (dose: 200.0 mg/kg/injection, schedule: Q07DX002 (ip), vehicle: saline with Tween-80) was 108 % of control and the T/C (dose: 400.0 mg/kg/injection, schedule: Q07DX002 (ip), vehicle: saline with Tween-80) was 118 % of control.
For `CC(=O)OCC1OC(OC(C)=O)C(NC(=O)N(CCCl)N=O)C(OC(C)=O)C1OC(C)=O` (configuration not stated), the T/C (dose: 0.75 mg/kg/injection, schedule: Q07DX002 (ip), vehicle: Klucel (hydroxypropylcellulose) (HPC)) was 100 % of control, the T/C (dose: 1.5 mg/kg/injection, schedule: Q07DX002 (ip), vehicle: Klucel (hydroxypropylcellulose) (HPC)) was 82 % of control and 96 % of control and the T/C (dose: 3.0 mg/kg/injection, schedule: Q07DX002 (ip), vehicle: Klucel (hydroxypropylcellulose) (HPC)) was 64 % of control.
With `O=C(CN1CCOCC1)Nc1nc(-c2ccc(Cl)cc2)cs1` the T/C (dose: 50.0 mg/kg/injection, schedule: Q07DX002 (ip), vehicle: DMSO) was 224 % of control, the T/C (dose: 100.0 mg/kg/injection, schedule: Q07DX002 (ip), vehicle: DMSO) was 292 % of control and the T/C (dose: 200.0 mg/kg/injection, schedule: Q07DX002 (ip), vehicle: DMSO) was 247 % of control. The T/C (dose: 400.0 mg/kg/injection, schedule: Q07DX002 (ip), vehicle: DMSO) was 234 % of control.
